Test results published in patent publication US9663523B2, “BET protein-inhibiting 5-aryltriazoleazepines” (BAYER PHARMA AKTIENGESELLSCHAFT, priority 2012, dated 2017).

What was measured:
[1] = system: MOLP-8 cells; test: Cell proliferation (alamarBlue), MOLP-8; assay type: cell-based; settings: Homo sapiens, multiple myeloma cell line, 120 hours incubation
Protocol: (§1) The ability of the compounds according to the invention to inhibit the proliferation of various cell lines was determined.
(§2) Cell viability was determined by means of the alamarBlue® reagent (Invitrogen). The cells were sown at different densities (MOLM-13, LAPC-4, MOLP-8 and MDA-MB-231: 4000 cells/well; B16F10: 400 cells/well) in 100 μl of growth medium on 96-well microtitre plates. After overnight incubation at 37° C., the fluorescence values (CI values) were determined. The plates were then treated with various substance dilutions and incubated at 37° C. for 96 hours (MOLM-13, MDA-MB-231 and B16F10 cells), 120 hours (MOLP-8 cells) or 168 hours (LAPC-4 cells). Subsequently, the fluorescence values were determined (CO values).
(§3) The compounds according to the invention were tested in the cell lines in Table 2, which represent the indications specified by way of example:
(§4) The indications corresponding to the different cell lines can be found in Table 2.

[2] = system: LAPC-4 cells; test: Cell proliferation (alamarBlue), LAPC-4; assay type: cell-based; settings: Homo sapiens, LAPC4; prostate carcinoma (androgen receptor-positive) cell line, 168 hours incubation
Protocol: as §1, §2, §3, §4

[3] = system: MDA-MB-231 cells; test: Cell proliferation (alamarBlue), MDA-MB-231; assay type: cell-based; settings: Homo sapiens, mammary carcinoma cell line, 96 hours incubation
Protocol: as §1
as §2, with “values). For the data analysis, the CI values were subtracted from the CO values and the results were compared between cells which had been treated with various dilutions of the substance or only with buffer solution.” for “values).”
as §3, §4

[4] = system: B16F10 cells; test: Cell proliferation (alamarBlue), B16F10; assay type: cell-based; settings: Mus musculus, B16-F10; melanoma cell line, 96 hours incubation
Protocol: as §1
as §2, with “values). For the data analysis, the CI values were subtracted from the CO values and the results were compared between cells which had been treated with various dilutions of the substance or only with buffer solution.” for “values).”
as §3, §4

[5] = system: MOLM-13 cells; test: Cell proliferation (alamarBlue), MOLM-13; assay type: cell-based; settings: Homo sapiens, acute myeloid leukaemia cell line, 96 hours incubation
Protocol: as §1
as §2, with “values). For the data analysis, the CI values were subtracted from the CO values and the results were compared between cells which had been treated with various dilutions of the substance or only with buffer solution.” for “values).”
as §3, §4

[6] = target: BRD4(1) (amino acids 44-168) (Homo sapiens (Human), UniProt O60885); test: BRD4 binding strength, TR-FRET (HTRF) assay of BRD4(1) / acetylated histone H4 peptide interaction; settings: inhibition of BRD4(1)/Ac-H4 peptide interaction
Source text: To assess the BRD4 binding strength of the compounds according to the invention, the ability thereof to inhibit the interaction between BRD4 and acetylated histone H4 in a dose-dependent manner was quantified. For this purpose, a time-resolved fluorescence resonance energy transfer (TR-FRET) assay was used, which measures the binding between N-terminally His6-tagged BRD4(1) (amino acids 44-168) and a synthetic acetylated histone H4 (Ac-H4) peptide with sequence […]-biotin. The recombinant BRD4 protein produced in-house according to Filippakopoulos et al., Cell, 2012, 149:214-231 was expressed in E. coli and purified by means of (Ni-NTA) affinity and (Sephadex G-75) size exclusion chromatography. The Ac-H4 peptide can be purchased, for example, from Biosyntan (Berlin, Germany). […] For this purpose, 100-fold concentrated solutions in DMSO were prepared by serial dilutions (1:3.4) of a 2 mM stock solution into a clear, 384-well microtitre plate (Greiner Bio-One, Frickenhausen, Germany). From this, 50 nl were transferred into a black test plate (Greiner Bio-One, Frickenhausen, Germany). […] This was followed by a 10-minute incubation step at 22° C. for the pre-equilibration of putative complexes between BRD4 and the substances. Subsequently, 3 μl of a solution of 1.67 times the concentration (in assay buffer) consisting of Ac-H4 peptide (83.5 nM) and TR-FRET detection reagents [16.7 nM anti-6His-XL665 and 3.34 nM streptavidin cryptate (both from Cisbio Bioassays, Codolet, France), and 668 mM potassium fluoride (KF)] were added. The mixture was then incubated in the dark at 22° C. for one hour and then at 4° C. overnight. The formation of BRD4/Ac-H4 complexes was determined by the measurement of the resonance energy transfer from the streptavidin-Eu cryptate to the anti-6His-XL665 antibody present in the reaction. […] The ratio of the emissions at 665 nm and at 622 nm was taken as an indicator of the amount of BRD4/Ac-H4 complexes formed.

Cc1nnc2n1-c1ccccc1C(c1ccc(Cl)cc1)=C[C@H]2CC(=O)N1CC2(CCS2(=O)=O)C1 [Example 19, (−)-2-[(4R)-6-(4-chlorophenyl)-1-methyl-4H-[1,2,4]triazolo[4,3-a][1]benzazepin-4-yl]-1-(1,1-dioxido-1-thia-6-azaspiro[3.3]hept-6-yl)ethanone]
IC50 [1]: 190 nM
IC50 [2]: 170 nM
IC50 [3]: 380 nM
IC50 [4]: 160 nM
IC50 [5]: 150 nM

Cc1nnc2n1-c1ccccc1C(c1ccc(Cl)cc1)=C[C@H]2CC(=O)N1CCC2(CCCC2)CC1 [Example 29, (−)-1-(8-azaspiro[4.5]dec-8-yl)-2-[(4R)-6-(4-chlorophenyl)-1-methyl-4H-[1,2,4]triazolo[4,3-a][1]benzazepin-4-yl]ethanone]
IC50 [1]: 1670 nM
IC50 [2]: 670 nM
IC50 [3]: 4730 nM
IC50 [6]: 1800 nM
IC50 [4]: 2120 nM
IC50 [5]: 2960 nM

Cc1nnc2n1-c1ccccc1C(c1ccc(Cl)cc1)=CC2CC(=O)N1CCC(=O)C1 (stereo not shown) [Example 26, 1-{[6-(4-chlorophenyl)-1-methyl-4H-[1,2,4]triazolo[4,3-a][1]benzazepin-4-yl]acetyl}pyrrolidin-3-one]
IC50 [1]: 380 nM
IC50 [2]: 310 nM
IC50 [3]: 1360 nM
IC50 [6]: 40 nM
IC50 [4]: 610 nM
IC50 [5]: 830 nM

Cc1nnc2n1-c1ccccc1C(c1ccc(Cl)cc1)=CC2CC(=O)N1CCOCC1 (stereo not shown) [Example 14, 2-[6-(4-chlorophenyl)-1-methyl-4H-[1,2,4]triazolo[4,3-a][1]-benzazepin-4-yl]-1-(morpholin-4-yl)ethanone]
IC50 [2]: 210 nM
IC50 [3]: 1010 nM
IC50 [6]: 310 nM
IC50 [4]: 410 nM
IC50 [5]: 460 nM

Cc1nnc2n1-c1ccccc1C(c1ccc(Cl)cc1)=CC2CC(=O)Nc1ccc2c(c1)CC(=O)N2 (stereo in doubt) [Example 21, (−)-2-[(4R)-6-(4-chlorophenyl)-1-methyl-4H-[1,2,4]triazolo[4,3-a][1]benzazepin-4-yl]-N-(2-oxo-2,3-dihydro-1H-indol-5-yl)acetamide]
IC50 [2]: 80 nM
IC50 [3]: 480 nM
IC50 [6]: 80 nM
IC50 [4]: 190 nM
IC50 [5]: 170 nM

Cc1nnc2n1-c1ccccc1C(c1ccc(Cl)cc1)=CC2CC(=O)Nc1ccc2c(c1)CC(=O)N2 (stereo not shown) [Example 20, 2-[6-(4-chlorophenyl)-1-methyl-4H-[1,2,4]triazolo[4,3-a][1]benzazepin-4-yl]-N-(2-oxo-2,3-dihydro-1H-indol-5-yl)acetamide]
IC50 [2]: 140 nM
IC50 [3]: 980 nM
IC50 [6]: 240 nM
IC50 [4]: 350 nM
IC50 [5]: 540 nM

Cc1nnc2n1-c1ccccc1C(c1ccc(Cl)cc1)=C[C@H]2CC(=O)N1CCS(=O)(=O)C1 [Example 31, (−)-2-[(4R)-6-(4-chlorophenyl)-1-methyl-4H-[1,2,4]triazolo[4,3-a][1]benzazepin-4-yl]-1-(1,1-dioxido-1,3-thiazolidin-3-yl)ethanone]
IC50 [2]: 80 nM
IC50 [3]: 560 nM
IC50 [6]: 180 nM
IC50 [4]: 220 nM
IC50 [5]: 190 nM

Cc1nnc2n1-c1ccccc1C(c1ccc(Cl)cc1)=C[C@H]2CC(=O)N1CC2CCC(C1)O2 (single isomer, unassigned; (-)) [Example 33]
IC50 [2]: 150 nM
IC50 [3]: 1290 nM
IC50 [6]: 450 nM
IC50 [4]: 400 nM
IC50 [5]: 330 nM

Cc1nnc2n1-c1ccccc1C(c1ccc(Cl)cc1)=CC2CC(=O)N1CC2(COC2)C1 (stereo in doubt) [Example 4, (−)-2-[(4R)-6-(4-chlorophenyl)-1-methyl-4H-[1,2,4]triazolo[4,3-a][1]benzazepin-4-yl]-1-(2-oxa-6-azaspiro[3.3]hept-6-yl)ethanone]
IC50 [1]: 740 nM
IC50 [2]: 660 nM
IC50 [3]: 2370 nM
IC50 [6]: 130 nM
IC50 [4]: 550 nM
IC50 [5]: 360 nM

Cc1nnc2n1-c1ccccc1C(c1ccc(Cl)cc1)=CC2CC(=O)N1CC2CCC(C1)O2 (stereo not shown) [Example 32, 2-[6-(4-chlorophenyl)-1-methyl-4H-[1,2,4]triazolo[4,3-a][1]benzazepin-4-yl]-1-(8-oxa-3-azabicyclo[3.2.1]oct-3-yl)ethanone]
IC50 [2]: 250 nM
IC50 [3]: 2040 nM
IC50 [6]: 390 nM
IC50 [4]: 800 nM
IC50 [5]: 1810 nM

Cc1nnc2n1-c1ccccc1C(c1ccc(Cl)cc1)=CC2CC(=O)N1CCC2(CCCC2)CC1 (stereo not shown) [Example 28, 1-(8-azaspiro[4.5]dec-8-yl)-2-[6-(4-chlorophenyl)-1-methyl-4H-[1,2,4]triazolo[4,3-a][1]benzazepin-4-yl]ethanone]
IC50 [1]: 6300 nM
IC50 [2]: 1200 nM
IC50 [3]: > 10000 nM
IC50 [6]: 1400 nM
IC50 [4]: 7050 nM
IC50 [5]: > 10000 nM

Cc1nnc2n1-c1ccccc1C(c1ccc(Cl)cc1)=CC2CC(=O)N1CCOCC1 (stereo in doubt) [Example 15, (−)-2-[(4R)-6-(4-chlorophenyl)-1-methyl-4H-[1,2,4]triazolo[4,3-a][1]benzazepin-4-yl]-1-(morpholin-4-yl)ethanone]
IC50 [2]: 60 nM
IC50 [3]: 350 nM
IC50 [6]: 40 nM
IC50 [4]: 130 nM
IC50 [5]: 230 nM

Cc1nnc2n1-c1ccccc1C(c1ccc(Cl)cc1)=CC2Cc1nc(C2CC2)no1 (stereo in doubt) [Example 37, (−)-(4R)-6-(4-Chlorophenyl)-4-[(3-cyclopropyl-1,2,4-oxadiazol-5-yl)methyl]-1-methyl-4H-[1,2,4]triazolo[4,3-a][1]benzazepine]
IC50 [2]: 310 nM
IC50 [3]: 380 nM
IC50 [6]: 50 nM
IC50 [4]: 220 nM
IC50 [5]: 330 nM

CCNC(=O)CC1C=C(c2ccc(Cl)cc2)c2ccccc2-n2c(C)nnc21 (stereo not shown) [Example 12, 2-[6-(4-chlorophenyl)-1-methyl-4H-[1,2,4]triazolo[4,3-a][1]benzazepin-4-yl]-N-ethylacetamide]
IC50 [2]: 80 nM
IC50 [3]: 480 nM
IC50 [6]: 130 nM
IC50 [4]: 230 nM
IC50 [5]: 270 nM

Cc1noc(C[C@H]2C=C(c3ccc(Cl)cc3)c3ccccc3-n3c(C)nnc32)n1 [Example 35, (−)-6-[(4R)-4-chlorophenyl]-1-methyl-4-[(3-methyl-1,2,4-oxadiazol-5-yl)methyl]-4H-[1,2,4]triazolo[4,3-a][1]benzazepine]
IC50 [1]: 130 nM
IC50 [2]: 80 nM
IC50 [3]: 210 nM
IC50 [6]: 30 nM
IC50 [4]: 150 nM
IC50 [5]: 160 nM

Cc1nnc2n1-c1ccccc1C(c1ccc(Cl)cc1)=C[C@H]2CC(=O)N1CC(Oc2ccccc2)C1 [Example 25, (−)-2-[(4R)-6-(4-chlorophenyl)-1-methyl-4H-[1,2,4]triazolo[4,3-a][1]benzazepin-4-yl]-1-(3-phenoxyazetidin-1-yl)ethanone]
IC50 [1]: 590 nM
IC50 [2]: 170 nM
IC50 [3]: 1330 nM
IC50 [6]: 1400 nM
IC50 [4]: 490 nM
IC50 [5]: 1130 nM

Cc1nnc2n1-c1ccccc1C(c1ccc(Cl)cc1)=CC2CC(=O)N1CC(F)C1 (stereo in doubt) [Example 17, (−)-2-[(4R)-6-(4-chlorophenyl)-1-methyl-4H-[1,2,4]triazolo[4,3-a][1]benzazepin-4-yl]-1-(3-fluoroazetidin-1-yl)ethanone]
IC50 [2]: 140 nM
IC50 [3]: 570 nM
IC50 [6]: 90 nM
IC50 [4]: 280 nM
IC50 [5]: 340 nM
